Experimental data reported in patent US7205306B2, “Substituted pyrazinones, pyridines and pyrimidines as corticotropin releasing factor ligands” (Bristol-Myers Squibb Pharma Company, priority 2001, dated 2007).

First: CC[C@@H](C1CC1)n1cc(Cl)nc(N2CCc3cc(Br)cc(Cl)c32)c1=O [Example 543, 3-(5-Bromo-7-chloro-2,3-dihydro-1H-indol-1-yl)-5-chloro-1-[(1S)-1-cyclopropylpropyl]-2(1H)-pyrazinone]
Second: CC[C@@H](COC)n1cc(Cl)nc(N2CCc3cc(Br)cc(Cl)c32)c1=O [Example 548, 3-(5-Bromo-7-chloro-2,3-dihydro-1H-indol-1-yl)-5-chloro-1-[(1S)-1-(methoxymethyl)propyl]-2(1H)-pyrazinone]
The melting point of the first is higher: 126 to 127 °C for the first, 121 to 122 °C for the second.

Compared with `CC[C@H](COC)n1cc(Cl)nc(N2CCc3cc(OC)cc(C#N)c32)c1=O` [Example 546, 1-[6-Chloro-4-[(1R)-1-(methoxymethyl)propyl]-3,4-dihydro-3-oxopyrazinyl]-5-methoxy-2,3-dihydro-1H-indole-7-carbonitrile], `CC[C@@H](COC)n1cc(Cl)nc(N2CCCc3cc(OC)cc(Br)c32)c1=O` [Example 555, 3-(8-Bromo-6-methoxy-1,2,3,4-tetrahydroquinoline)-5-chloro-1-[(1S)-1-(methoxymethyl)propyl]-2(1H)-pyrazinone] is lower in melting point: 141 to 142 °C for the first, 93 to 94 °C for the second.

First: CC[C@H](COC)n1cc(Br)nc(N2CCc3cc(Br)cc(Cl)c32)c1=O [Example 547, 5-Bromo-3-(5-bromo-7-chloro-2,3-dihydro-1H-indol-1-yl)-1-[(1R)-1-(methoxymethyl)propyl]-2(1H)-pyrazinone]
Second: CC[C@H](COC)n1cc(Br)nc(N2CCCc3cc(OC)cc(Br)c32)c1=O [Example 554, 5-Bromo-3-(8-bromo-6-methoxy-1,2,3,4-tetrahydroquinoline)-1-[(1R)-1-(methoxymethyl)propyl]-2(1H)-pyrazinone]
The melting point of the first is higher: 118 °C for the first, 102 to 103 °C for the second.

Compared with `CCC(CC)n1cc(Cl)nc(N2CCCc3cc(OC)cc(Br)c32)c1=O` [Example 550, 3-(8-Bromo-6-methoxy-1,2,3,4-tetrahydroquinoline)-5-chloro-1-(1-ethylpropyl)-2(1H)-pyrazinone], `COC[C@@H](C)n1cc(Cl)nc(N2CCCc3cc(OC)cc(Br)c32)c1=O` [Example 553, 3-(8-Bromo-6-methoxy-1,2,3,4-tetrahydroquinoline)-5-chloro-1-[(1R)-2-methoxy-1-methylethyl]-2(1H)-pyrazinone] is higher in melting point: 125 to 126 °C for the first, 146 °C for the second.

First: CC[C@H](C1CC1)n1cc(Cl)nc(N2CCCc3cc(OC)cc(Br)c32)c1=O [Example 551, 3-(8-Bromo-6-methoxy-1,2,3,4-tetrahydroquinoline)-5-chloro-1-[(1R)-1-cyclopropylpropyl]-2(1H)-pyrazinone]
Second: CC[C@@H](C1CC1)n1cc(Cl)nc(N2CCCc3cc(OC)cc(Br)c32)c1=O [Example 552, 3-(8-Bromo-6-methoxy-1,2,3,4-tetrahydroquinoline)-5-chloro-1-[(1S)-1-cyclopropylpropyl]-2(1H)-pyrazinone]
The melting point of the first is higher: 127 to 129 °C for the first, 118 to 119 °C for the second.
